Laboratory results: US12024707B2, “Methods and compositions for modulating lncRNAs and methods of treatment based on lncRNA expression” (Washington University, priority 2020, dated 2024)
Several values for one entry are separate records, joined by “and”; a condition that tells them apart may be missing. Identical values can stand only once. Counter-ions that a name gives are not always drawn. Like-named read-outs stand apart in the source and are kept apart here. Starred links: 1 amine or outer side, 2 acyl side, 3 side chain; linkers in the order of their positions; H or OH if unused. Positions of bridges follow the written chain, without caps; N, C: chain ends. Non-standard residues stand in square brackets, D forms with d. Residues, ends and D or L forms follow the SMILES beside them. Chains are numbered I, II in the order given. Actinocin(9to1) = Cc1c2oc3c(C)ccc(C(=O)[*:1])c3nc-2c(C(=O)[*:2])c(N)c1=O; NMeV = CN[C@H](C(=O)O)C(C)C; Sar = CNCC(=O)O

System: HT29 RAMS11 overexpressing cells
Assay: High-throughput viability assay (resazurin), 119 FDA-approved anticancer drugs, RAMS11 overexpressing cells (Clone1, Clone2)
[1] = OE1 (RAMS11 overexpression clone 1), 0.1 uM drug, 72 h, vs empty vector control
[2] = OE1 (RAMS11 overexpression clone 1), 1 uM drug, 72 h, vs empty vector control
[3] = OE1 (RAMS11 overexpression clone 1), 10 uM drug, 72 h, vs empty vector control
[4] = OE2 (RAMS11 overexpression clone 2), 0.1 uM drug, 72 h, vs empty vector control
[5] = OE2 (RAMS11 overexpression clone 2), 1 uM drug, 72 h, vs empty vector control
[6] = OE2 (RAMS11 overexpression clone 2), 10 uM drug, 72 h, vs empty vector control

Method: The FDA-approved anticancer panel included multiple classes of drugs such as kinase inhibitors, alkylating agents, antineoplastic antibiotics, anthracycline antibiotics, and antineoplastic agents (topoisomerase inhibitors). The HT29 RAMS11 overexpressing and control cells were treated for 72 h to assess cellular viability upon drug treatment (FIG. 14a and TABLE 3). […] Due to 5-FU commonly used to treat mCRC, we further determined if RAMS11 expression altered drug sensitivity in treated cells.
Drugs were diluted in DMSO to 1 mM and the well assignments were rearranged so drugs were confined to the inner 60 wells of 96-well plates. […] The next day serial diluted drug was added to pre-seeded plates in media containing 1% DMSO vehicle, using a Robbins Hydra 96 micro dispenser. Two 96-well plates of cells were used as vehicle controls. The plates were incubated for 3 days. Percent viability was scored by incubating cells for 3 h with resazurin sodium (0.023 mg/mL, Sigma R7017). The reaction was stopped by the addition of SDS (1% final concentration). Fluorescence Ex/Em 540/590 was read in a Biotek Synergy H1 plate reader (Winooski, VT). The fluorescence values for the vehicle plates were averaged and percent viability was determined by the formula: Percent viability=(average vehicle−value)/(average vehicle−average resazurin in media blank)×100. […] Assays were repeated more than three times.

Row | Compound | Viability Fold Change [1] | Viability Fold Change [2] | Viability Fold Change [3] | Viability Fold Change [4] | Viability Fold Change [5] | Viability Fold Change [6] | Viability Fold Change
1 | Nc1nc(Cl)nc2c1ncn2[C@@H]1O[C@H](CO)[C@@H](O)[C@@H]1F [Clofarabine] | 0.9141 | 1.361 | 2.473 | 1.012 | 1.421 | 2.375 | 
2 | C[C@@H](Oc1cc(-c2cnn(C3CCNCC3)c2)cnc1N)c1c(Cl)ccc(F)c1Cl [Crizotinib] | 0.9595 | 1.07 | 0.9127 | 0.9806 | 1.093 | 0.8562 | 
3 | O=P1(N(CCCl)CCCl)NCCCO1 (stereo not shown) [Cyclophosphamide] |  |  |  |  |  |  | 0.857 and 0.9632 and 0.9808 and 0.899 and 1.019 and 0.881
4 | Nc1ccn([C@@H]2O[C@H](CO)[C@@H](O)[C@@H]2O)c(=O)n1 [Cytarabine hydrochloride] | 0.9825 | 1.254 | 1.524 | 0.9917 | 1.381 | 1.876 | 
5 | CN(C)/N=N/c1[nH]cnc1C(N)=O [Dacarbazine] | 1.078 | 0.9877 | 0.983 | 1.084 | 1.028 | 0.9794 | 
6 | Cc1c2oc3c(C)ccc(C(=O)N[C@@H]4C(=O)N[C@H](C(C)C)C(=O)N5CCC[C@H]5C(=O)N(C)CC(=O)N(C)[C@@H](C(C)C)C(=O)O[C@@H]4C)c3nc-2c(C(=O)N[C@@H]2C(=O)N[C@H](C(C)C)C(=O)N3CCC[C@H]3C(=O)N(C)CC(=O)N(C)[C@@H](C(C)C)C(=O)O[C@@H]2C)c(N)c1=O [Dactinomycin] (I: T[dV]P[Sar][NMeV] / II: T[dV]P[Sar][NMeV]; ester I:1-I:C, II:1-II:C; linker I:N-II:N via Actinocin(9to1)) | 1.513 | 1.552 | 2.719 | 1.417 | 1.475 | 2.498 | 
7 | Cc1nc(Nc2ncc(C(=O)Nc3c(C)cccc3Cl)s2)cc(N2CCN(CCO)CC2)n1 [Dasatinib] | 0.7242 | 1.289 | 1.518 | 0.7852 | 1.567 | 1.607 | 
8 | Nc1ncn([C@H]2C[C@H](O)[C@@H](CO)O2)c(=O)n1 [Decitabine] | 0.9064 | 0.9366 | 0.8624 | 1.026 | 1.091 | 1.168 | 
9 | C[C@@H](CN1CC(=O)NC(=O)C1)N1CC(=O)NC(=O)C1 [Dexrazoxane] | 0.9553 | 0.9814 | 0.8688 | 0.9411 | 1.049 | 1.119 | 
10 | CC(=O)O[C@@]12CO[C@@H]1C[C@H](O)[C@@]1(C)C(=O)[C@H](O)C3=C(C)[C@@H](OC(=O)[C@H](O)[C@@H](NC(=O)OC(C)(C)C)c4ccccc4)C[C@@](O)([C@@H](OC(=O)c4ccccc4)[C@H]21)C3(C)C [Docetaxel] | 2.831 | 2.996 | 2.894 | 2.726 | 2.845 | 2.869 | 
11 | CNC(=O)c1ccc(N2C(=S)N(c3ccc(C#N)c(C(F)(F)F)c3)C(=O)C2(C)C)cc1F [Enzalutamide] | 1.043 | 1.081 | 1.088 | 1.022 | 1.152 | 1.1 | 
12 | COc1cccc2c1C(=O)c1c(O)c3c(c(O)c1C2=O)C[C@@](O)(C(=O)CO)C[C@@H]3O[C@H]1C[C@H](N)[C@@H](O)[C@H](C)O1 [Epirubicin hydrochloride] | 1.025 | 1.822 | 2.19 | 1.023 | 1.861 | 1.999 | 
13 | C#Cc1cccc(Nc2ncnc3cc(OCCOC)c(OCCOC)cc23)c1 [Erlotinib HCl] | 0.9958 | 1.169 | 1.179 | 0.9899 | 1.172 | 1.215 | 
14 | C[C@]12CC[C@@H]3c4ccc(OC(=O)N(CCCl)CCCl)cc4CC[C@H]3[C@@H]1CC[C@@H]2O [Estramustine] | 0.97 | 1.105 | 1.034 | 0.951 | 1.223 | 1.025 | 
15 | COc1cc([C@@H]2c3cc4c(cc3C(O[C@@H]3O[C@@H]5CO[C@@H](C)O[C@H]5[C@H](O)[C@H]3O)C3COC(=O)[C@@H]32)OCO4)cc(OC)c1O (stereo partly shown) [Etopside] | 1.144 | 1.073 | 1.161 | 1.13 | 0.9992 | 1.196 | 
16 | CO[C@H]1C[C@@H]2CC[C@@H](C)[C@@](O)(O2)C(=O)C(=O)N2CCCC[C@H]2C(=O)O[C@H]([C@H](C)C[C@@H]2CC[C@@H](OCCO)[C@H](OC)C2)CC(=O)[C@H](C)/C=C(\C)[C@@H](O)[C@@H](OC)C(=O)[C@H](C)C[C@H](C)/C=C/C=C/C=C/1C [Everolimus] | 0.6419 | 0.7474 | 0.6863 | 0.6484 | 0.7943 | 0.721 | 
17 | C=C1C[C@@H]2[C@H](CC[C@]3(C)C(=O)CC[C@@H]23)[C@@]2(C)C=CC(=O)C=C12 [Exemestane] | 0.8651 | 0.981 | 0.9176 | 1.047 | 1.008 | 1.06 | 
18 | Nc1nc(F)nc2c1ncn2[C@@H]1O[C@H](CO)[C@@H](O)[C@@H]1O [Fludarabine] | 0.869 | 0.9921 | 1.056 | 0.973 | 1.069 | 1.073 | 
19 | C[C@]12CC[C@@H]3c4ccc(O)cc4C[C@@H](CCCCCCCCC[S+]([O-])CCCC(F)(F)C(F)(F)F)[C@H]3[C@@H]1CC[C@@H]2O (stereo partly shown) [Fulvestrant] | 1.048 | 1.037 | 1.135 | 1.088 | 1.089 | 1.036 | 
20 | COc1cc2ncnc(Nc3ccc(F)c(Cl)c3)c2cc1OCCCN1CCOCC1 [Gefitinib] | 0.9453 | 1.164 | 1.468 | 0.9436 | 1.227 | 1.392 | 
21 | NC(=O)NO [Hydroxyurea] | 0.9496 | 0.9632 | 0.9723 | 0.9871 | 1.074 | 0.9675 | 
22 | CC(=O)[C@]1(O)Cc2c(O)c3c(c(O)c2[C@@H](O[C@H]2C[C@H](N)[C@H](O)[C@H](C)O2)C1)C(=O)c1ccccc1C3=O [Idarubicin hydrochloride] | 1.365 | 1.73 | 3.603 | 1.573 | 1.623 | 3.696 | 
